Experimental data taken from US8802597B2, “Herbicidal pyrimidines” (E I du Pont de Nemours and Company, priority 2003, dated 2014).
Like-named read-outs stand apart in the source and are kept apart here.

Assays:
Format in all cases: in vivo
[1] = test system: pigweed (Amaranthus retroflexus); test: Test B pre/postemergence; conditions: Amaranthus retroflexus; for pest or weed control at 125 g/ha: 125 g ai/ha; for pest or weed control at 500 g/ha: 500 g ai/ha
Summary of the method: (§1)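 Pre: compound (non-phytotoxic solvent + surfactant) applied to freshly planted seeds. Post: same formulation sprayed on 2–18 cm plants, 1- to 4-leaf. Readout: visual control rating 0–100 vs controls, 13–15 d, greenhouse.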

[2] = test system: barnyardgrass (Echinochloa crus-galli); test: Test B pre/postemergence; conditions: Echinochloa crus-galli; for pest or weed control at 125 g/ha: 125 g ai/ha; for pest or weed control at 500 g/ha: 500 g ai/ha
Summary of the method: as §1

[3] = test system: cocklebur (Xanthium strumarium); test: Test B pre/postemergence; conditions: Xanthium strumarium; for pest or weed control at 125 g/ha: 125 g ai/ha; for pest or weed control at 500 g/ha: 500 g ai/ha
Summary of the method: as §1

[4] = test system: giant foxtail (Setaria faberii); test: Test B pre/postemergence; conditions: Setaria faberi; for pest or weed control at 125 g/ha: 125 g ai/ha; for pest or weed control at 500 g/ha: 500 g ai/ha
Summary of the method: as §1

[5] = test system: wheat (Triticum aestivum); test: Test B pre/postemergence; conditions: Triticum aestivum; for plant injury at 125 g/ha: 125 g ai/ha; for plant injury at 500 g/ha: 500 g ai/ha
Summary of the method: as §1

[6] = test system: lambsquarters (Chenopodium album); test: Test B pre/postemergence; conditions: Chenopodium album; for pest or weed control at 125 g/ha: 125 g ai/ha; for pest or weed control at 500 g/ha: 500 g ai/ha
Summary of the method: as §1

[7] = test system: velvetleaf (Abutilon theophrasti); test: Test B pre/postemergence; conditions: Abutilon theophrasti; for pest or weed control at 125 g/ha: 125 g ai/ha; for pest or weed control at 500 g/ha: 500 g ai/ha
Summary of the method: as §1

[8] = test system: crabgrass (Digitaria sanguinalis); test: Test B pre/postemergence; conditions: Digitaria sanguinalis; for pest or weed control at 125 g/ha: 125 g ai/ha; for pest or weed control at 500 g/ha: 500 g ai/ha
Summary of the method: as §1

corn (Zea mays) = test: Test B pre/postemergence; conditions: Zea mays
Summary of the method: as §1

[9] = test system: morningglory (Ipomoea coccinea); test: Test B pre/postemergence; conditions: Ipomoea; for pest or weed control at 125 g/ha: 125 g ai/ha; for pest or weed control at 500 g/ha: 500 g ai/ha
Summary of the method: as §1

[10] = test system: Surinam grass (Brachiaria decumbens); test: Test B pre/postemergence; conditions: Urochloa decumbens; for pest or weed control at 125 g/ha: 125 g ai/ha; for pest or weed control at 500 g/ha: 500 g ai/ha
Summary of the method: as §1

[11] = test system: blackgrass (Alopecurus myosuroides); test: Test B postemergence; conditions: Alopecurus myosuroides, post-emergence
Summary of the method: as §1

wild oat (Avena fatua) = test: Test B postemergence; conditions: Avena fatua, post-emergence
Summary of the method: as §1

[12] = test system: barnyardgrass (Echinochloa crus-galli); test: Test B flooded paddy test; conditions: Echinochloa crus-galli, Flood, 1000 g ai/ha; scale 0 (no effect) to 100 (complete control); read-out: Plant response rating, Barnyardgrass
Summary of the method: (§2)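 Visual injury scoring (0 = no effect, 100 = complete control) versus controls made 13 to 15 days after treatment in the greenhouse. Test species were grown in flooded paddy to the 2-leaf stage: rice, barnyardgrass, umbrella sedge, duck salad.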

rice (Oryza sativa) = test: Test B flooded paddy test; conditions: Oryza sativa, Flood, 1000 g ai/ha; scale 0 to 100; read-out: Plant response rating, Rice
Summary of the method: as §2

[13] = test system: umbrella sedge (Cyperus difformis); test: Test B flooded paddy test; conditions: Cyperus difformis, Flood, 1000 g ai/ha; scale 0 to 100; read-out: Plant response rating, Sedge, Umbrella
Summary of the method: as §2

[14] = test system: duck salad (Heteranthera limosa); test: Test B flooded paddy test; conditions: Heteranthera limosa, Flood, 1000 g ai/ha; scale 0 to 100; read-out: Plant response rating, Ducksalad
Summary of the method: as §2

In the case of `CCOC(=O)c1nc(-c2ccccc2)nc(N)c1Br` [Compound 18], the pest or weed control at 125 g/ha ([1]; post-emergence, Postemergence, scale 0 to 100 (0 no effect, 100 complete control), read-out: Pigweed plant response rating) is reported as 20%, the pest or weed control at 500 g/ha ([1]; post-emergence, Postemergence, scale 0 to 100, read-out: Plant response rating, Pigweed) is reported as 70% and the pest or weed control at 125 g/ha ([1]; pre-emergence, Preemergence, scale 0 to 100 (0 no effect, 100 complete control), read-out: Plant response rating, Pigweed) is reported as 0%. For the same compound, the pest or weed control at 500 g/ha ([1]; pre-emergence, Preemergence, scale 0 to 100 (0 no effect, 100 complete control), read-out: Pigweed plant response rating) was 70%, the pest or weed control at 125 g/ha ([2]; post-emergence, Postemergence, scale 0 to 100 (0 no effect, 100 complete control), read-out: Barnyardgrass plant response rating) was 0% and the pest or weed control at 500 g/ha ([2]; post-emergence, Postemergence, scale 0 to 100, read-out: Plant response rating, Barnyardgrass) was 0%. For the same compound, the pest or weed control at 125 g/ha ([2]; pre-emergence, Preemergence, scale 0 to 100 (0 no effect, 100 complete control), read-out: Plant response rating, Barnyardgrass) was 0%, the pest or weed control at 500 g/ha ([2]; pre-emergence, Preemergence, scale 0 to 100 (0 no effect, 100 complete control), read-out: Barnyardgrass plant response rating) was 0% and the pest or weed control at 125 g/ha ([3]; post-emergence, Postemergence, scale 0 to 100 (0 no effect, 100 complete control), read-out: Cocklebur plant response rating) was 70%. The pest or weed control at 500 g/ha ([3]; post-emergence, Postemergence, scale 0 to 100, read-out: Plant response rating, Cocklebur) was 70%, the pest or weed control at 125 g/ha ([3]; pre-emergence, Preemergence, scale 0 to 100 (0 no effect, 100 complete control), read-out: Plant response rating, Cocklebur) was 10% and the pest or weed control at 500 g/ha ([3]; pre-emergence, Preemergence, scale 0 to 100 (0 no effect, 100 complete control), read-out: Cocklebur plant response rating) was 40%. For the same compound, the pest or weed control at 125 g/ha ([4]; post-emergence, Postemergence, scale 0 to 100 (0 no effect, 100 complete control), read-out: Foxtail, Giant plant response rating) was 0%, the pest or weed control at 500 g/ha ([4]; post-emergence, Postemergence, scale 0 to 100, read-out: Plant response rating, Foxtail, Giant) was 0% and the pest or weed control at 125 g/ha ([4]; pre-emergence, Preemergence, scale 0 to 100 (0 no effect, 100 complete control), read-out: Plant response rating, Foxtail, Giant) was 0%. It also gave a pest or weed control at 500 g/ha ([4]; pre-emergence, Preemergence, scale 0 to 100 (0 no effect, 100 complete control), read-out: Foxtail, Giant plant response rating) of 0%, a plant injury at 125 g/ha ([5]; post-emergence, Postemergence, scale 0 to 100 (0 no effect, 100 complete control), read-out: Wheat plant response rating) of 0% and a plant injury at 500 g/ha ([5]; post-emergence, Postemergence, scale 0 to 100, read-out: Plant response rating, Wheat) of 0%. The plant injury at 125 g/ha ([5]; pre-emergence, Preemergence, scale 0 to 100 (0 no effect, 100 complete control), read-out: Plant response rating, Wheat) was 0%, the plant injury at 500 g/ha ([5]; pre-emergence, Preemergence, scale 0 to 100 (0 no effect, 100 complete control), read-out: Wheat plant response rating) was 0% and the pest or weed control at 125 g/ha ([6]; post-emergence, Postemergence, scale 0 to 100 (0 no effect, 100 complete control), read-out: Lambsquarters plant response rating) was 70%. It also gave a pest or weed control at 500 g/ha ([6]; post-emergence, Postemergence, scale 0 to 100, read-out: Plant response rating, Lambsquarters) of 90%, a pest or weed control at 125 g/ha ([6]; pre-emergence, Preemergence, scale 0 to 100 (0 no effect, 100 complete control), read-out: Plant response rating, Lambsquarters) of 10% and a pest or weed control at 500 g/ha ([6]; pre-emergence, Preemergence, scale 0 to 100 (0 no effect, 100 complete control), read-out: Lambsquarters plant response rating) of 60%. For the same compound, the pest or weed control at 125 g/ha ([7]; post-emergence, Postemergence, scale 0 to 100 (0 no effect, 100 complete control), read-out: Velvetleaf plant response rating) was 20%, the pest or weed control at 500 g/ha ([7]; post-emergence, Postemergence, scale 0 to 100, read-out: Plant response rating, Velvetleaf) was 50% and the pest or weed control at 125 g/ha ([7]; pre-emergence, Preemergence, scale 0 to 100 (0 no effect, 100 complete control), read-out: Plant response rating, Velvetleaf) was 0%. For the same compound, the pest or weed control at 500 g/ha ([7]; pre-emergence, Preemergence, scale 0 to 100 (0 no effect, 100 complete control), read-out: Velvetleaf plant response rating) was 40%, the pest or weed control at 125 g/ha ([8]; post-emergence, Postemergence, scale 0 to 100 (0 no effect, 100 complete control), read-out: Crabgrass plant response rating) was 0% and the pest or weed control at 500 g/ha ([8]; post-emergence, Postemergence, scale 0 to 100, read-out: Plant response rating, Crabgrass) was 0%. It also gave a pest or weed control at 125 g/ha ([8]; pre-emergence, Preemergence, scale 0 to 100 (0 no effect, 100 complete control), read-out: Plant response rating, Crabgrass) of 0%, a pest or weed control at 500 g/ha ([8]; pre-emergence, Preemergence, scale 0 to 100 (0 no effect, 100 complete control), read-out: Crabgrass plant response rating) of 0% and a plant injury at 125 g/ha (corn (Zea mays); post-emergence, Postemergence, 125 g ai/ha, scale 0 to 100 (0 no effect, 100 complete control), read-out: Corn plant response rating) of 0%. The Corn plant response rating (crop injury, 0 = no effect, 100 = complete kill) at 500 g/ha (corn (Zea mays); post-emergence, Postemergence, 500 g ai/ha, scale 0 to 100) was 0%, the Corn plant response rating (crop injury, 0 = no effect, 100 = complete kill) at 125 g/ha (corn (Zea mays); pre-emergence, Preemergence, 125 g ai/ha, scale 0 to 100 (0 no effect, 100 complete control)) was 0% and the plant injury at 500 g/ha (corn (Zea mays); pre-emergence, Preemergence, 500 g ai/ha, scale 0 to 100 (0 no effect, 100 complete control), read-out: Corn plant response rating) was 0%. The pest or weed control at 125 g/ha ([9]; post-emergence, Postemergence, scale 0 to 100 (0 no effect, 100 complete control), read-out: Morningglory plant response rating) was 20%, the pest or weed control at 500 g/ha ([9]; post-emergence, Postemergence, scale 0 to 100, read-out: Plant response rating, Morningglory) was 70% and the pest or weed control at 125 g/ha ([9]; pre-emergence, Preemergence, scale 0 to 100 (0 no effect, 100 complete control), read-out: Plant response rating, Morningglory) was 0%. The pest or weed control at 500 g/ha ([9]; pre-emergence, Preemergence, scale 0 to 100 (0 no effect, 100 complete control), read-out: Morningglory plant response rating) was 0%, the pest or weed control at 125 g/ha ([10]; post-emergence, Postemergence, scale 0 to 100 (0 no effect, 100 complete control), read-out: Surinam Grass plant response rating) was 0% and the pest or weed control at 500 g/ha ([10]; post-emergence, Postemergence, scale 0 to 100, read-out: Plant response rating, Surinam Grass) was 0%. It also gave a pest or weed control at 125 g/ha ([10]; pre-emergence, Preemergence, scale 0 to 100 (0 no effect, 100 complete control), read-out: Plant response rating, Surinam Grass) of 0%, a pest or weed control at 500 g/ha ([10]; pre-emergence, Preemergence, scale 0 to 100 (0 no effect, 100 complete control), read-out: Surinam Grass plant response rating) of 0% and a pest or weed control at 125 g/ha ([11]; 125 g ai/ha, scale 0 to 100 (0 no effect, 100 complete control), read-out: Blackgrass plant response rating) of 0%. For the same compound, the pest or weed control at 500 g/ha ([11]; 500 g ai/ha, scale 0 to 100, read-out: Plant response rating, Blackgrass) was 0%, the pest or weed control at 125 g/ha (wild oat (Avena fatua); 125 g ai/ha, scale 0 to 100 (0 no effect, 100 complete control), read-out: Oat, Wild plant response rating) was 0% and the pest or weed control at 500 g/ha (wild oat (Avena fatua); 500 g ai/ha, scale 0 to 100, read-out: Plant response rating, Oat, Wild) was 0%. For the same compound, the pest or weed control at 1000 g/ha [12] was 0%, the plant injury at 1000 g/ha (rice (Oryza sativa)) was 0% and the pest or weed control at 1000 g/ha [13] was 0%. For the same compound, the pest or weed control at 1000 g/ha [14] was 80%.
